According to patent publication US8759011B2, “Assay system for determining binding of hydrophobic drugs” (Nederlandse Organisatie voor …, priority 2009, dated 2014):

System: human plasma
Assay: plasma binding by partition extraction in dimethylsiloxane-coated 96-well plates
Format: in vitro ADME
Conditions: for counts in the polymer coating: one plate
Description: 96-wells deepwell plates (lot 1450-401 Perkin-Elmer Lifesciences) were coated with dimethylsiloxane by making the solutions A-H here below in n-hexane. The used dimethylsiloxane (Silicone rubber, GE Silicones, Bergen op Zoom, The Netherlands) has a density of 1.06. Solution H contains 9.54 g dimethylsiloxane in 300 ml n-hexane.
From solutions A-H 100 μl is pipetted in row A-H of each plate. Plates were dried to air for minimally 18 hours (overnight).
To each dilution of plasma (solutions 1-12) an identical amount of the compound to be tested is added (about […]/200 μl solution). […] The solutions are incubated with the compound overnight at 4°.
The plasma solutions 1-12 are added to corresponding columns 1-12 of each plate (200 μl/well). Also 200 μl was added to a separate vessel to be able to correct for (plasma concentration dependent) solubilization. The next day the plates are emptied, washed once with aqua bidest and dried. When sufficient dry in all wells 200 μl counting solution (Optiphase Hisafe 2, Perkin Elmer Lifesciences) is added and the plates are covered. After incubation for minimally 4 hours under gently shaking the radioactivity in each plate is determined using liquid scintillation counting with a MicroBeta device (Perkin Elmer).
Additionally a total count was determined for each well. The total count is the count in the polymer coating+the count in the remaining fluid. The latter was determined by isolating 25 μl from solution in each well prior to emptying, and mixing with Optiphase (Perkin Elmer) followed by liquid scintillation counting.
1. For each datapoint for which the total count was determined, the recovery of total radioactivity was determined by comparing with the counts of the reference spiking solution. Cells with a total recovery <75% were excluded from further data analysis.
2. From all rows containing polymer, the a-specific binding, i.e. the corresponding counts from the row without polymer, was substracted.
3. Curve fitting was applied using the following formula for each cell:
Predicted counts in coating=Tc/((1/ffp+1/fp−1)×(fp×Vw)/Kpdms/Vp)), where
The above formula was fitted using ffp and Kpdms target parameters to be optimized using the least squares regression method over all wells that were included in the data analysis, by calculating the squared difference between the measured counts in the coating and the predicted counts in the coating. Results

C=C1CC[C@H](O)C/C1=C/C=C1\CCC[C@]2(C)[C@@H]([C@H](C)CCCC(C)(C)O)CC[C@@H]12 [25-hydroxy vitamin D3]
Free fraction ± s.d. (fitted free fraction for 100% plasma, ratio between free fraction and total concentration, average of six 96 well plates): 0.000502 ± 0.000060
counts in the polymer coating (plasma 0 ml/ml, coating 0 nl): 1529
counts in the polymer coating (plasma 0 ml/ml, coating 4.1 nl): 2095
counts in the polymer coating (plasma 0 ml/ml, coating 10.2 nl): 3498
counts in the polymer coating (plasma 0 ml/ml, coating 25.6 nl): 4260
counts in the polymer coating (plasma 0 ml/ml, coating 64 nl): 5814
counts in the polymer coating (plasma 0 ml/ml, coating 160 nl): 7292
counts in the polymer coating (plasma 0 ml/ml, coating 400 nl): 8015
counts in the polymer coating (plasma 0 ml/ml, coating 1000 nl): 8491
counts in the polymer coating (plasma 0.0005 ml/ml, coating 0 nl): 639
counts in the polymer coating (plasma 0.0005 ml/ml, coating 4.1 nl): 1753
counts in the polymer coating (plasma 0.0005 ml/ml, coating 10.2 nl): 2581
counts in the polymer coating (plasma 0.0005 ml/ml, coating 25.6 nl): 4428
counts in the polymer coating (plasma 0.0005 ml/ml, coating 64 nl): 8145
counts in the polymer coating (plasma 0.0005 ml/ml, coating 160 nl): 12361
counts in the polymer coating (plasma 0.0005 ml/ml, coating 400 nl): 15727
counts in the polymer coating (plasma 0.0005 ml/ml, coating 1000 nl): 16960
counts in the polymer coating (plasma 0.0008 ml/ml, coating 0 nl): 495
counts in the polymer coating (plasma 0.0008 ml/ml, coating 4.1 nl): 1176
counts in the polymer coating (plasma 0.0008 ml/ml, coating 10.2 nl): 1649
counts in the polymer coating (plasma 0.0008 ml/ml, coating 25.6 nl): 3019
counts in the polymer coating (plasma 0.0008 ml/ml, coating 64 nl): 6029
counts in the polymer coating (plasma 0.0008 ml/ml, coating 160 nl): 10164
counts in the polymer coating (plasma 0.0008 ml/ml, coating 400 nl): 13748
counts in the polymer coating (plasma 0.0008 ml/ml, coating 1000 nl): 15479
counts in the polymer coating (plasma 0.001 ml/ml, coating 0 nl): 419
counts in the polymer coating (plasma 0.001 ml/ml, coating 4.1 nl): 972
counts in the polymer coating (plasma 0.001 ml/ml, coating 10.2 nl): 1545
counts in the polymer coating (plasma 0.001 ml/ml, coating 25.6 nl): 2658
counts in the polymer coating (plasma 0.001 ml/ml, coating 64 nl): 5501
counts in the polymer coating (plasma 0.001 ml/ml, coating 160 nl): 9700
counts in the polymer coating (plasma 0.001 ml/ml, coating 400 nl): 13183
counts in the polymer coating (plasma 0.001 ml/ml, coating 1000 nl): 15022
counts in the polymer coating (plasma 0.003 ml/ml, coating 0 nl): 151
counts in the polymer coating (plasma 0.003 ml/ml, coating 4.1 nl): 399
counts in the polymer coating (plasma 0.003 ml/ml, coating 10.2 nl): 603
counts in the polymer coating (plasma 0.003 ml/ml, coating 25.6 nl): 1258
counts in the polymer coating (plasma 0.003 ml/ml, coating 64 nl): 2547
counts in the polymer coating (plasma 0.003 ml/ml, coating 160 nl): 5687
counts in the polymer coating (plasma 0.003 ml/ml, coating 400 nl): 9284
counts in the polymer coating (plasma 0.003 ml/ml, coating 1000 nl): 11307
counts in the polymer coating (plasma 0.005 ml/ml, coating 0 nl): 109
counts in the polymer coating (plasma 0.005 ml/ml, coating 4.1 nl): 257
counts in the polymer coating (plasma 0.005 ml/ml, coating 10.2 nl): 428
counts in the polymer coating (plasma 0.005 ml/ml, coating 25.6 nl): 866
counts in the polymer coating (plasma 0.005 ml/ml, coating 64 nl): 1719
counts in the polymer coating (plasma 0.005 ml/ml, coating 160 nl): 3804
counts in the polymer coating (plasma 0.005 ml/ml, coating 400 nl): 7410
counts in the polymer coating (plasma 0.005 ml/ml, coating 1000 nl): 10375
counts in the polymer coating (plasma 0.008 ml/ml, coating 0 nl): 95
counts in the polymer coating (plasma 0.008 ml/ml, coating 4.1 nl): 212
counts in the polymer coating (plasma 0.008 ml/ml, coating 10.2 nl): 372
counts in the polymer coating (plasma 0.008 ml/ml, coating 25.6 nl): 686
counts in the polymer coating (plasma 0.008 ml/ml, coating 64 nl): 1331
counts in the polymer coating (plasma 0.008 ml/ml, coating 160 nl): 3035
counts in the polymer coating (plasma 0.008 ml/ml, coating 400 nl): 5863
counts in the polymer coating (plasma 0.008 ml/ml, coating 1000 nl): 9044
counts in the polymer coating (plasma 0.01 ml/ml, coating 0 nl): 90
counts in the polymer coating (plasma 0.01 ml/ml, coating 4.1 nl): 169
counts in the polymer coating (plasma 0.01 ml/ml, coating 10.2 nl): 293
counts in the polymer coating (plasma 0.01 ml/ml, coating 25.6 nl): 523
counts in the polymer coating (plasma 0.01 ml/ml, coating 64 nl): 1054
counts in the polymer coating (plasma 0.01 ml/ml, coating 160 nl): 2408
counts in the polymer coating (plasma 0.01 ml/ml, coating 400 nl): 5093
counts in the polymer coating (plasma 0.01 ml/ml, coating 1000 nl): 8309
counts in the polymer coating (plasma 0.02 ml/ml, coating 0 nl): 82
counts in the polymer coating (plasma 0.02 ml/ml, coating 4.1 nl): 98
counts in the polymer coating (plasma 0.02 ml/ml, coating 10.2 nl): 182
counts in the polymer coating (plasma 0.02 ml/ml, coating 25.6 nl): 278
counts in the polymer coating (plasma 0.02 ml/ml, coating 64 nl): 641
counts in the polymer coating (plasma 0.02 ml/ml, coating 160 nl): 1394
counts in the polymer coating (plasma 0.02 ml/ml, coating 400 nl): 3130
counts in the polymer coating (plasma 0.02 ml/ml, coating 1000 nl): 5582
counts in the polymer coating (plasma 0.03 ml/ml, coating 0 nl): 62
counts in the polymer coating (plasma 0.03 ml/ml, coating 4.1 nl): 75
counts in the polymer coating (plasma 0.03 ml/ml, coating 10.2 nl): 130
counts in the polymer coating (plasma 0.03 ml/ml, coating 25.6 nl): 237
counts in the polymer coating (plasma 0.03 ml/ml, coating 64 nl): 409
counts in the polymer coating (plasma 0.03 ml/ml, coating 160 nl): 988
counts in the polymer coating (plasma 0.03 ml/ml, coating 400 nl): 2209
counts in the polymer coating (plasma 0.03 ml/ml, coating 1000 nl): 4228
counts in the polymer coating (plasma 0.04 ml/ml, coating 0 nl): 55
counts in the polymer coating (plasma 0.04 ml/ml, coating 4.1 nl): 68
counts in the polymer coating (plasma 0.04 ml/ml, coating 10.2 nl): 87
counts in the polymer coating (plasma 0.04 ml/ml, coating 25.6 nl): 153
counts in the polymer coating (plasma 0.04 ml/ml, coating 64 nl): 342
counts in the polymer coating (plasma 0.04 ml/ml, coating 160 nl): 722
counts in the polymer coating (plasma 0.04 ml/ml, coating 400 nl): 1681
counts in the polymer coating (plasma 0.04 ml/ml, coating 1000 nl): 3295
counts in the polymer coating (plasma 0.05 ml/ml, coating 0 nl): 47
counts in the polymer coating (plasma 0.05 ml/ml, coating 4.1 nl): 48
counts in the polymer coating (plasma 0.05 ml/ml, coating 10.2 nl): 70
counts in the polymer coating (plasma 0.05 ml/ml, coating 25.6 nl): 153
counts in the polymer coating (plasma 0.05 ml/ml, coating 64 nl): 296
counts in the polymer coating (plasma 0.05 ml/ml, coating 160 nl): 588
counts in the polymer coating (plasma 0.05 ml/ml, coating 400 nl): 1354
counts in the polymer coating (plasma 0.05 ml/ml, coating 1000 nl): 2501
